The values that follow are results of earlier work, collected in publication PMC2818531 (Bioorganic & medicinal chemistry letters, 2009).

Each structure is given as a SMILES string. pEC50: −log10 of the molar value.

In general, pEC50 refers to the negative decadic logarithm of the EC50, by convention in mol/L.

This data set has as its target HIV gp41 six-helix bundle (6-HB) (Human immunodeficiency virus type 1 group M subtype B, UniProt P04578). The following applies: read-out: EC50, inhibition of gp41 6-helical bundle formation.

HIV gp41 six-helix bundle (6-HB), sequence (P04578 546-581): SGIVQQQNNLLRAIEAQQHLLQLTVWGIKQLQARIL

`Cc1ccc(C)n1-c1ccc(O)c(C(=O)O)c1` [Ligand A12]: the pEC50 was 4.43.
